Test results taken from patent publication US20250017840A1, “NOVEL SENOTHERAPY PEPTIDE AND COMPOSITION CONTAINING THE SAME” (AMOREPACIFIC CORPORATION, priority 2023, published 2025).

How the values were obtained:
[1] = tested on: skin senescent cells (aged skin fibroblasts, DI model and RS model); experiment: Survival rate of aged cells (CCK-8), selective apoptosis efficacy on skin senescent cells; assay type: cell-based, human; details: 100 μg/ml for 3 days, FIG. 2; for apoptosis effect of senescent cells (survival rate of aged cells, CCK-8): DI model or RS model skin fibroblasts; for selective apoptosis effect on the senescent cells versus normal cells: senescent versus normal skin fibroblasts
Method: Specifically, in the case of the DI model, the skin fibroblasts (Normal human dermal fibroblasts, Lonza, Switzerland) were cultured in DMEM Medium (Lonza, Switzerland) containing 10% FBS, and then were inoculated into a chamber slide (Thermo Fisher Scientific, USA) at 1×10^3 cells per well and cultured in a CO2 incubator of 5% concentration at 37° C. for 24 hours. The cultured wells were treated with each of Doxorubicin-hydrochloride (Sigma) and IGF-1 (Sigma) in a concentration of 100 ng/ml for 4 days to induce early senescence of the skin fibroblasts. As a control group, the normal skin fibroblasts that were not treated with Dox or IGF-1 were prepared. Thereafter, for the immunofluorescence stain, the cell culture solution was washed with PBS three times and fixed in 4% paraformaldehyde for 30 minutes. Then, the skin fibroblast sample was washed with PBS containing 0.2% Triton X-100 three times, added to PBS containing 3% BSA, and left for 1 hour. Next, the sample was incubated in 1% BSA containing rabbit polyclonal anti-FOXO4 antibody (SAB4501887, Sigma) (1:500 dilution) at 4° C. overnight to allow the antibody to bind to an antigen contained in the skin fibroblasts. Thereafter, the Sample was washed with the PBS three times, incubated with Alexa Fluor®488-conjugated goat polyclonal secondary antibody (A32731, ThermoFisher Scientific) (1:1000 dilution) against rabbit IgG-H&L at a room temperature for 1 hour, and then washed with the PBS three times. Next, a drop of the mounting solution containing DAPI was placed on a microscope slide glass and fixed by raising the coverslip itself. The fixed sample was observed by a confocal microscope (LSM 980, Zeiss, Germany).
In the case of the RS model, the aged skin fibroblasts were prepared by continuously culturing skin fibroblasts (Normal human dermal fibroblasts, Lonza, Switzerland) in DMEM Medium (Lonza, Switzerland) containing 10% FBS over 30 to 40 times. For the immunofluorescence staining test, each of the aged skin fibroblasts (p41) and the normal skin fibroblasts was inoculated into a chamber slide (Thermo Fisher Scientific, USA) at 1×10^3 cells per well, and cultured in a CO2 incubator of 5% concentration at 37° C. for 48 hours. Thereafter, the cell culture solution was washed with PBS three times and fixed in 4% paraformaldehyde for 30 minutes. Next, the skin fibroblast sample was washed with PBS containing 0.2% Triton X-100 three times, added to PBS containing 3% BSA, and left for 1 hour. Then, the sample was incubated in 1% BSA containing a rabbit polyclonal anti-FOXO4 antibody (SAB4501887, Sigma) (1:500 dilution) at 4° C. overnight to allow the antibody to bind to an antigen contained in the skin fibroblasts. Thereafter, the sample was washed with the PBS three times, incubated with Alexa Fluor®488-conjugated goat polyclonal secondary antibody (A32731, ThermoFisher Scientific) (1:1000 dilution) against rabbit IgG-H&L at a room temperature for 1 hour, and then was washed with the PBS three times. […]
As in Test Example 1, after the skin fibroblasts (DI model) that induced senescence by treating with each of Doxorubicin and IGF-1 in a concentration of 100 ng/ml for 4 days or the fibroblasts (RS model) aged by culturing the skin fibroblasts up to passage 40 were treated with a peptide (21a-D) consisting of the amino acid sequence of […] […] ([…]) in each concentration of 100 μg/ml for 3 days, a survival rate of the aged cells was measured. […]

MMP-1 = MMP-1 expression in senescent cells by qPCR; assay type: cell-based, human; details: DI model senescent cells, treated as in Test Example 2; FIG. 5
Method: After treating the DI model with the peptide (21a-D) consisting of the amino acid sequence of […] (SEQ ID NO: 1) and the peptide (FOXO4-DRI) consisting of the amino acid sequence of […] (SEQ ID NO: 4) in the same manner as in Test Example 2 above, an ability to suppress the expression of MMP-1 in the senescent cells was identified. After recovering the cultured cells, total RNA was isolated using a TRIzol™ solution (TRIzol™ Reagent, Invitrogen) extraction method. 1 μg of the isolated RNA was synthesized into cDNA using reverse transcriptase (RevertAid Firist strand cDNA synthesis kit, Thermofisher), and then diluted to a final concentration of 200 μl. In order to perform PCR, a mixing kit was prepared by mixing […] (Hs00899658_m1, ThermoFisher Scientific), 10 μl of Taqman universal master mix II with UNG (Applied Biosystems), and 5 μl of distilled water to allow the mixture to be diluted to 16 μl. 16 μl of the mixing kit and 4 μl of cDNA were mixed to perform qPCR under the following reaction conditions. The reaction conditions were 95° C., initialization reaction for 10 minutes, denaturation at 95° C. for 15 seconds, annealing at 60° C. for 60 seconds, and extension reaction at 50° C. for 20 seconds, which were set to be performed in a PCR device (7500 Fast Real-time PCR system, Applied Biosystems) with repetition of 40 times.

p53 and FOXO4 = target: T1, p53 and FOXO4 (Homo sapiens, UniProt P04637); experiment: Immunofluorescence observation of cytoplasmic movement of p53; assay type: cell-based; details: DI-treated aged skin fibroblasts; 100 ug/ml for 3 days; FIG. 4
T1 construct: endogenous in cells; host or cells: skin fibroblasts made senescent with doxorubicin and IGF-1 (DI model)
Method: It was confirmed through the immunofluorescence (IF) stain experiment whether or not this phenomenon was observed when the skin senescent cells were treated with the peptide having the amino acid sequence of SEQ ID NO: 1 according to an embodiment of the present invention. The aged skin fibroblasts treated with DI (Doxorubicin/IGF-1) were treated with the peptide 21a-D in the same manner as in Test Example 2, and then the expression and cytoplasmic movement of FOXO4 and p53 were observed.
Specifically, the skin fibroblasts were inoculated into a chamber slide (Thermo Fisher Scientific, USA) at 1×10^3 cells per well and cultured in a 5% CO2 incubator at 37° C. for 24 hours. The cultured wells were treated with each of Dox and IGF-1 in a concentration of 100 ng/ml for 4 days to induce early senescence of the skin fibroblasts, and then treated with the peptide 21a-D in a concentration of 100 ug/ml for 3 days followed by being further cultured. For immunofluorescence stain, the cell culture solution was washed with PBS three times and fixed by treating it with ice-cold methanol at −20° C. for 10 minutes. Next, it was added into PBS containing 3% BSA and left for 1 hour. […]

[2] = tested on: skin senescent cells (DI model and RS model); experiment: SA-β-gal stain and microscopic observation of apoptosis efficacy on skin senescent cells; assay type: cell-based, human; details: treated as in Test Example 2, FIGS. 3A and 3B
Method: In the same manner as that of Test Example 2, after the DI model and the RS model were treated with a peptide (21a-D) consisting of the amino acid sequence of […] (SEQ ID NO: 1) and a peptide (FOXO4-DRI) consisting of the amino acid sequence of […] (SEQ ID NO: 4), SA-3-gal (senescent associated-β-galactosidase) stain and microscopic observation were performed to visually confirm an apoptosis efficacy of the skin senescent cells. The SA-3-Gal stain was performed according to the protocol using the Senescence Cell Histochemical Staining Kit (CS0030, Sigma, USA), and after 24 hours of the staining, it was confirmed whether or not the cells were stained through an optical microscope.

T1 sequence (P04637 whole entry): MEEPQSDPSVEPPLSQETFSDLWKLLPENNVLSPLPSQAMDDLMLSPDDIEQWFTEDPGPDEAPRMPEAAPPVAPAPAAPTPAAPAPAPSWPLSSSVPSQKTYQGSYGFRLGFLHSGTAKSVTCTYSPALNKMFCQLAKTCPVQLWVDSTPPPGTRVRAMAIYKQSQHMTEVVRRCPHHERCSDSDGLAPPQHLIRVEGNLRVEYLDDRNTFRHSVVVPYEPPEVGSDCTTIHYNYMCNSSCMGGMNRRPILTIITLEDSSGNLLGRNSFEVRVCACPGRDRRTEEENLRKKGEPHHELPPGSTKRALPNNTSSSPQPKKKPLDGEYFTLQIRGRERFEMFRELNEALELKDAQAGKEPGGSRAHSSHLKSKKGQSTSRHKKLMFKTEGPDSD

Sequence	apoptosis effect of senescent cells (survival rate of aged cells, CCK-8) [1]	selective apoptosis effect on the senescent cells versus normal cells [1]	expression of MMP-1 (qPCR, corrected for GAPDH) (MMP-1)	binding of p53 and FOXO4 in the nucleus (p53 and FOXO4)	cytoplasmic movement of p53 (immunofluorescence) (p53 and FOXO4)	number of senescent cells (SA-β-gal stain, microscopic observation) [2]
QRKKRRQRRRPRRNAWGNQSYA [22a-L]	minimal	–	–	–	–	–
LTLRKEPASEIAQSILEAYSQNGWANRRSGGKRPPPRRRQRRKKRG [FOXO4-DRI, reference compound]	apoptosis effect had on the senescent cells as well as even on the normal cells	weak	–	–	–	–
AYSQNGWANRRRRGGRRRRRR [21a-D]	–	selective apoptosis of only skin senescent cells was induced	suppressed	suppressed the binding of p53 and FOXO4 in the nucleus	p53 moved to a cytoplasm in the nucleus	significantly reduced
AYSQNGWANRRPRRRQRRKKRG [22a-D]	minimal	–	–	–	–	–
